# Assay results: patent publication US8937089B2, “Synergistic mixtures of anthranilamide invertebrate pest control agents” (priority 2004, dated 2015)
# Key:
# Assay in all cases: whole plant or invertebrate
# Assay type in all cases: in vivo
# [1] = system: silverleaf whitefly (Bemisia argentifolii Bellows and Perring); conditions: Table 2B
# Procedure, shortened: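 Whitefly-egg-infested 12–14-day-old cotton plants sprayed with compound in 10% acetone/90% water plus 300 ppm non-ionic surfactant, in triplicate. Plants then held 13 days at 28 °C and 50–70% relative humidity before mortality assessment.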
# [2] = system: western flower thrip (Frankliniella occidentalis Pergande); conditions: single compound, spray, 7 days
# Procedure, shortened: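 Compounds in 10% acetone/90% water with 300 ppm non-ionic surfactant were sprayed onto 5- to 7-day-old bean plants, 3 replicates. After 1 h drying, 22–27 adult thrips were added per unit. Units were held 7 days at 25° C, 45–55% RH, assessing contact and/or systemic control.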
# [3] = system: potato leafhopper (Empoasca fabae Harris); conditions: alone
# Procedure, shortened: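 Bean plants (5–6 days old, one primary leaf excised) were sprayed with 1 mL of compound in 10% acetone/water with 300 ppm X-77 surfactant, 3 replicates. After drying for 1 h, each unit was infested with 5 adult leafhoppers. Units were held 6 days at 19–21 °C and 50–70% RH.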
# [4] = system: corn planthopper (Peregrines maidis); conditions: Corn Plant Hopper
# Procedure, shortened: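 Compounds in 10% acetone/90% water with 300 ppm X-77 surfactant sprayed (3 replications) onto 3- to 4-day-old corn plants, dried 1 h, then infested with 10–20 corn planthopper nymphs aged 18–20 days. Held 6 days at 19-21° C. and 50-70% relative humidity; contact and/or systemic control assessed.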
# [5] = system: cotton melon aphid (Aphis gossypii Glover)
# Procedure, shortened: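 Cotton plants (6–7 days old) pre-infested with 30–40 aphids by cut-leaf method, sprayed with compound (ppm) in 10% acetone/90% water with 300 ppm X-77 surfactant, three replicates. Held 6 days at 19–21 °C, 50–70% RH; contact and/or systemic control assessed.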
# [6] = system: green peach aphid (Myzus persicae Sulzer); conditions: Green Peach Aphid
# Procedure, shortened: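 Compounds formulated in 10% acetone/water with 300 ppm X-77 surfactant were atomized onto aphid-infested radish seedlings, with three replicates per treatment. Infestation was 30–40 aphids transferred on excised leaf pieces, covering contact and systemic exposure. Test units stayed 6 days in a growth chamber at 19–21 °C and 50–70% relative humidity.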
# [7] = system: diamondback moth (Plutella xylostella)
# Experimental: The test compounds were dissolved in water. […] Serial dilutions were made to obtain the appropriate concentrations. To obtain the desired mixture concentrations of each compound, twice the desired concentration of each of the two mixture partner compounds were mixed together in equal volumes.
# The diluted solutions of the test compounds were sprayed to run-off on three-week-old tomato plants. The plants were placed on a rotating turntable sprayer (10 rpm). Test solutions were applied using a flat fan air-assisted nozzle (Spraying Systems 122440) at 10 psi (69 kPa). […] The leaves were cut into pieces, which were placed singly into 5.5 cm-by-3.5 cm cells of a sixteen-cell plastic tray. Each cell contained a 2.5-cm square of moistened chromatography paper to prevent desiccation. One insect was placed in each cell. There two trays per treatment. Trays were held in the growth chamber at 25° C., 16-hour light:8-hour dark, 60% relative humidity for 4 days.
# For evaluating control of diamondback moth (Plutella xylostella), cabbage (var. Stonehead) plants were grown in Metromix potting soil in 10-cm pots in aluminum trays to test size (28 days, 3-4 full leaves) the plants were sprayed to the point of runoff using the turntable sprayer as described in Test I. Test compounds were formulated and sprayed on test plants as described for Test I. After drying for 2 hours, the treated leaves were excised and infested with one cabbage looper per cell and covered. The test units were placed on trays and put in a growth chamber at 25° C. and 60% relative humidity for 4 days.
substance,measurement,setting,value
Pyridaben,% mortality (obs),[1]; rate 20 ppm,21%
same,% mortality (obs),[1]; rate 30 ppm,55%
same,% mortality (obs),[1]; rate 50 ppm,73%
same,% mortality (obs),[2]; rate 10 ppm,30%
same,% mortality (obs),[2]; rate 80 ppm,50%
same,% mortality (obs),[2]; rate 200 ppm,60%
same,% mortality (obs),[3]; rate 1 ppm,0%
same,% mortality (obs),[3]; rate 2.5 ppm,13%
same,% mortality (obs),[3]; rate 10 ppm,100%
same,% mortality (obs),[4]; rate 2 ppm,10%
same,% mortality (obs),[4]; rate 2.5 ppm,2%
same,% mortality (obs),[4]; rate 3 ppm,2%
same,% mortality (obs),[5]; rate 1 ppm,11%
same,% mortality (obs),[5]; rate 2 ppm,15%
same,% mortality (obs),[5]; rate 10 ppm,71%
same,% mortality (obs),[6]; rate 1 ppm,100%
same,% mortality (obs),[6]; rate 10 ppm,14%
same,% mortality (obs),[6]; rate 60 ppm,60%
same,% mortality (obs),[7]; rate 100 ppm,100%
same,% mortality (obs),[7]; rate 150 ppm,80%
same,% mortality (obs),[7]; rate 200 ppm,100%
Spinosad,% mortality (obs),[1]; rate 100 ppm,66%
same,% mortality (obs),[1]; rate 150 ppm,69%
same,% mortality (obs),[1]; rate 300 ppm,95%
same,% mortality (obs),[2]; rate 0.1 ppm,20%
same,% mortality (obs),[2]; rate 0.5 ppm,60%
same,% mortality (obs),[2]; rate 3 ppm,90%
same,% mortality (obs),[3]; rate 30 ppm,73%
same,% mortality (obs),[3]; rate 100 ppm,80%
same,% mortality (obs),[3]; rate 110 ppm,47%
same,% mortality (obs),[4]; rate 5 ppm,100%
same,% mortality (obs),[4]; rate 10 ppm,100%
same,% mortality (obs),[4]; rate 20 ppm,100%
same,% mortality (obs),[5]; rate 10 ppm,16%
same,% mortality (obs),[5]; rate 100 ppm,35%
same,% mortality (obs),[5]; rate 1000 ppm,30%
same,% mortality (obs),[6]; rate 10 ppm,25%
same,% mortality (obs),[6]; rate 100 ppm,46%
same,% mortality (obs),[6]; rate 1000 ppm,59%
same,% mortality (obs),[7]; rate 10 ppm,100%
same,% mortality (obs),[7]; rate 100 ppm,90%
same,% mortality (obs),[7]; rate 1000 ppm,100%
Thiamethoxam,% mortality (obs),[1]; rate 5 ppm,15%
same,% mortality (obs),[1]; rate 15 ppm,78%
same,% mortality (obs),[1]; rate 30 ppm,92%
same,% mortality (obs),[2]; rate 5 ppm,20%
same,% mortality (obs),[2]; rate 50 ppm,80%
same,% mortality (obs),[2]; rate 250 ppm,90%
same,% mortality (obs),[3]; rate 0.1 ppm,80%
same,% mortality (obs),[3]; rate 0.2 ppm,100%
same,% mortality (obs),[3]; rate 0.4 ppm,100%
same,% mortality (obs),[4]; rate 0.2 ppm,100%
same,% mortality (obs),[4]; rate 0.4 ppm,100%
same,% mortality (obs),[4]; rate 0.6 ppm,100%
same,% mortality (obs),[5]; rate 0.2 ppm,24%
same,% mortality (obs),[5]; rate 0.4 ppm,48%
same,% mortality (obs),[5]; rate 0.6 ppm,66%
same,% mortality (obs),[6]; rate 0.2 ppm,35%
same,% mortality (obs),[6]; rate 0.4 ppm,94%
same,% mortality (obs),[6]; rate 0.6 ppm,100%
same,% mortality (obs),[7]; rate 30 ppm,90%
same,% mortality (obs),[7]; rate 40 ppm,100%
same,% mortality (obs),[7]; rate 50 ppm,100%
